Source: article PMC11991097 (2025)

Assays:
[1] = tested on: Del-1 (DNA, aptamer) ACCGACCGTGCTGGACTCTAAGGTGGAGTTATAGGCTTACTGCCACGTCAGTATGAGCGAGCGTTGCG; assay: magnetic bead elution; AuNP/PDDA colorimetry; conditions: 50 μg/mL (beads), 2 μg/mL (colorimetry, MOPS); elution much lower than Del; ΔA650/A520 about 0.4
[2] = tested on: Del-1 (DNA, aptamer) ACCGACCGTGCTGGACTCTAAGGTGGAGTTATAGGCTTACTGCCACGTCAGTATGAGCGAGCGTTGCG; assay: magnetic bead elution, ssDNA absorbance, nonlinear fit; conditions: PBS screening buffer; room temperature, 2 h; Del fixed 50 μg/mL, aptamer varied 50–500 nM; capture strand P displaced

Compound | binding [1] | Kd [2]
CC1(C)C(C(=O)OC(C#N)c2cccc(Oc3ccccc3)c2)C1(C)C (stereo not drawn) | weak | 
CC1(C)C(C=C(Cl)Cl)C1C(=O)OC(C#N)c1cccc(Oc2ccccc2)c1 (stereo not drawn) | weak | 
CC1(C)[C@H](C(=O)O[C@H](C#N)c2cccc(Oc3ccccc3)c2)[C@@H]1C=C(Br)Br |  | 82.90 ± 6.272 nM
